Experimental data reported in patent US20090298825A1, “Bicycloheteroaryl Compounds as P2x7 Modulators and Uses Thereof” (priority 2006, published 2009).

Experiments:
[1] = biological target: T1, P2X7 receptor (Homo sapiens, UniProt Q99572); experiment: IL-1β release assay in differentiated THP-1 cells stimulated with BzATP (Example 9); format: cell-based; conditions: for inhibition at 0.3 µM: 0.3 μM concentration; for inhibition at 0.3 µM / inhibition at 0.1 µM: read-out: IL-1β % Inhib. @ 0.3 or 0.1 μM; for IC50: four parameter logistic fit, read-out: IL-1β IC50; for inhibition at 0.1 µM: 0.1 μM concentration
T1 construct: endogenous in cells; host or cells: THP-1 cells differentiated with LPS and IFN-γ
T1 sequence (Q99572 1-595): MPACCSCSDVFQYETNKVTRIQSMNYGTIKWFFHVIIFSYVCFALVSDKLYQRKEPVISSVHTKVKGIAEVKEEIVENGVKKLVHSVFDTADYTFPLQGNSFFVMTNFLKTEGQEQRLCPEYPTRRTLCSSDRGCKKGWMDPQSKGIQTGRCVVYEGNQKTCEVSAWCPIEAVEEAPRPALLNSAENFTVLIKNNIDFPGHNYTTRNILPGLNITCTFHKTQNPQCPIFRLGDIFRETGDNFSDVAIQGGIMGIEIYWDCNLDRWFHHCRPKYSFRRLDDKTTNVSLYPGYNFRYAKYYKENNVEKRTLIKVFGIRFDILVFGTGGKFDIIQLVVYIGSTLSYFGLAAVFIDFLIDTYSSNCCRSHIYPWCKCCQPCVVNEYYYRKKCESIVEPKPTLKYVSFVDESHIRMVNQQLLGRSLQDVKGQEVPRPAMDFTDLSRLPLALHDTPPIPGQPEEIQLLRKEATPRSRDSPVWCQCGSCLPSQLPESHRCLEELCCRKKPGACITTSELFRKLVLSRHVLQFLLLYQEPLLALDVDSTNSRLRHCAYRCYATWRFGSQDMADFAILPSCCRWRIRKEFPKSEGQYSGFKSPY
Outline: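 Differentiated THP-1 cells pretreated 30 min with compound, then stimulated with BzATP. Released IL-1β in supernatant measured by ELISA; background-adjusted percent inhibition fitted to four-parameter logistic for IC50.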

[2] = Half-life in human liver microsomes (HLM); format: in vitro ADME; conditions: pH 7.4, 1 μM compound, 0.78 mg/mL HLM, NADPH, 37° C.
Experimental: Test compounds (1 μM) are incubated with 3.3 mM MgCl2 and 0.78 mg/mL HLM (HL101) in 100 mM potassium phosphate buffer (pH 7.4) at 37° C. on the 96-deep well plate. The reaction mixture is split into two groups, a non-P450 and a P450 group. NADPH is only added to the reaction mixture of the P450 group. An aliquot of samples of P450 group is collected at 0, 10, 30, and 60 min time point, where 0 min time point indicated the time when NADPH is added into the reaction mixture of P450 group. An aliquot of samples of non-P450 group is collected at −10 and 65 min time point. Collected aliquots are extracted with acetonitrile solution containing an internal standard. The precipitated protein is spun down in centrifuge (2000 rpm, 15 min). The compound concentration in supernatant is measured by LC/MS/MS system.
The half-life value is obtained by plotting the natural logarithm of the peak area ratio of compounds/internal standard versus time. The slope of the line of best fit through the points yields the rate of metabolism (k).

SMILES	inhibition at 0.3 µM [1] [%]	IC50 [1] [nM]	half-life at 1 μM [2] [h]	inhibition at 0.1 µM [1] [%]
C[C@H](C(=O)Nc1cccc2c(=O)n(C3CNCC3O)ccc12)c1ccc(Cl)cc1 (some centres unmarked) [ID 829]	> 76	19.9	1.54	–
O=C(Cc1ccc(Cl)c(C(F)(F)F)c1)Nc1cccc2c(=O)n([C@H]3CCNC3)ccc12 [ID 825]	> 76	16.4	4.27	–
Cc1ccc(-n2ccc3c(NC(=O)CC45CC6CC(CC(C6)C4)C5)cccc3c2=O)cn1 [ID 715]	> 76	4.02	0.42	–
COc1ncccc1-n1ccc2c(NC(=O)Cc3ccc(Cl)c(C(F)(F)F)c3)cccc2c1=O [ID 847]	> 76	9.37	0.22	–
CC1(C)CC(CC(=O)Nc2cccc3c(=O)n([C@@H]4CCNC4)ccc23)CC(C)(C)C1 [ID 830]	> 76	–	5.59	–
Cc1cc(-n2ccc3c(NC(=O)c4ccc(F)c(C)c4)cccc3c2=O)no1 [ID 740]	–	–	–	0 to 25
COc1ncccc1-n1ccc2c(NC(=O)CC34CC5CC(CC(C5)C3)C4)cccc2c1=O [ID 710]	> 76	0.246	–	–
CCOC(=O)N1CCC(n2ccc3c(NC(=O)CCc4ccccc4OC)cccc3c2=O)CC1 [ID 775]	–	–	–	0 to 25
Cc1cc(-n2ccc3c(NC(=O)Cc4ccccc4C)cccc3c2=O)no1 [ID 729]	–	–	–	0 to 25
CCOC(=O)N1CCC(n2ccc3c(NC(=O)c4ccc(-c5ccccc5)cc4)cccc3c2=O)CC1 [ID 772]	–	–	–	0 to 25
O=C(CC12CC3CC(CC(C3)C1)C2)Nc1cccc2c(=O)n(-c3ccc(Sc4cc(Cl)ccc4Cl)nc3)ccc12 [ID 707]	> 76	1.63	–	–
O=C(CC1CCCCCC1)Nc1cccc2c(=O)n(C3CNCC3O)ccc12 (centres unmarked) [ID 828]	> 76	6.87	1.38	–
COc1cccc(CC(=O)Nc2cccc3c(=O)n(-c4cc(C)on4)ccc23)c1 [ID 730]	–	–	–	0 to 25
CC(C(=O)Nc1cccc2c(=O)n(C3CCNC3)ccc12)c1ccc(Cl)cc1 (centres unmarked) [ID 821]	51 to 75	252	–	–
O=C(CC12CC3CC(CC(C3)C1)C2)Nc1cccc2c(=O)n(-c3ccc(Oc4ccc(Br)cc4)nc3)ccc12 [ID 704]	> 76	0.322	–	–
CC(C(=O)Nc1cccc2c(=O)n([C@H]3CCNC3)ccc12)c1ccc(Cl)cc1 (some centres unmarked) [ID 823]	> 76	42.5	–	–

Further lines, results first:

inhibition at 0.3 µM [1] [%]	IC50 [1] [nM]	half-life at 1 μM [2] [h]	inhibition at 0.1 µM [1] [%]	SMILES
> 76	35	3.62	–	C[C@@H](C(=O)Nc1cccc2c(=O)n([C@H]3CCNC3)ccc12)c1ccc(Cl)c(Cl)c1 [ID 833]
> 76	2.44	1.85	–	O=C(Cc1ccc(Cl)c(C(F)(F)F)c1)Nc1cccc2c(=O)n(C3CNCC3O)ccc12 (centres unmarked) [ID 826]
> 76	4	0.49	–	Cc1ncccc1-n1ccc2c(NC(=O)Cc3ccc(Cl)c(C(F)(F)F)c3)cccc2c1=O [ID 861]
> 76	14.7	0.54	–	O=C(Cc1ccc(Cl)cc1F)Nc1cccc2c(=O)n(C3CC3)ccc12 [ID 883]
> 76	5.37	0.77	–	O=C(Cc1ccc(F)c(C(F)(F)F)c1)Nc1cccc2c(=O)n(C3CC3)ccc12 [ID 884]
> 76	8.72	1.08	–	O=C(Cc1ccc(C(F)(F)F)c(F)c1)Nc1cccc2c(=O)n(-c3cccnc3F)ccc12 [ID 871]
> 76	11	0.73	–	Cc1ncccc1-n1ccc2c(NC(=O)Cc3ccc(C(F)(F)F)c(F)c3)cccc2c1=O [ID 855]
> 76	15.9	2.88	–	O=C(Cc1ccc(Cl)c(C(F)(F)F)c1)Nc1cccc2c(=O)n(C3CCNC3)ccc12 (centres unmarked) [ID 814]
> 76	23.7	–	–	O=C(Cc1ccc(C(F)(F)F)cc1)Nc1cccc2c(=O)n(C3CC3)ccc12 [ID 877]
> 76	28.5	–	–	O=C(Cc1ccc(C(F)(F)F)cc1F)Nc1cccc2c(=O)n(C3CCC3)ccc12 [ID 887]
> 76	6.04	–	–	O=C(Cc1ccc(Cl)c(F)c1)Nc1cccc2c(=O)n(C3CC3)ccc12 [ID 882]
> 76	76.7	–	–	Cc1ncccc1-n1ccc2c(NC(=O)Cc3ccc(C(F)(F)F)cc3F)cccc2c1=O [ID 865]
–	–	–	0 to 25	CCOC(=O)N1CCC(n2ccc3c(NC(=O)Cc4ccc5c(c4)OCO5)cccc3c2=O)CC1 [ID 790]
